Measurements from PubChem BioAssay (NCI).
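Growth conditions: 96-well plates. Treatment: test compound, 48 hours, 5 concentrations. Analysis: linear interpolation between bracketing concentrations; unreached endpoints set to highest concentration. At the TGI there is no net growth.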

Legend:
Test in all cases: NCI anticancer screen, dose series, 48 h
SK-MEL-2 melanoma = tested on: SK-MEL-2 melanoma
OVCAR-8 ovarian = tested on: OVCAR-8 ovarian
SF-268 CNS = tested on: SF-268 CNS
A549 NSCLC = tested on: A549 NSCLC
RXF 393 renal = tested on: RXF 393 renal
SW-620 colon = tested on: SW-620 colon
SR leukemia = tested on: SR leukemia
SNB-75 CNS = tested on: SNB-75 CNS
OVCAR-4 ovarian = tested on: OVCAR-4 ovarian
TK-10 renal = tested on: TK-10 renal
MOLT-4 leukemia = tested on: MOLT-4 leukemia
SF-539 CNS = tested on: SF-539 CNS
786-0 renal = tested on: 786-0 renal
CAKI-1 renal = tested on: CAKI-1 renal
HCT-116 colon = tested on: HCT-116 colon
UO-31 renal = tested on: UO-31 renal
HOP-62 NSCLC = tested on: HOP-62 NSCLC
UACC-257 melanoma = tested on: UACC-257 melanoma
LOX IMVI melanoma = tested on: LOX IMVI melanoma
DU-145 prostate = tested on: DU-145 prostate
NCI/ADR-RES ovarian = tested on: NCI/ADR-RES ovarian
CCRF-CEM leukemia = tested on: CCRF-CEM leukemia
IGROV1 ovarian = tested on: IGROV1 ovarian
SN12C renal = tested on: SN12C renal
COLO 205 colon = tested on: COLO 205 colon
HCC-2998 colon = tested on: HCC-2998 colon
SF-295 CNS = tested on: SF-295 CNS
RPMI-8226 leukemia = tested on: RPMI-8226 leukemia
ACHN renal = tested on: ACHN renal
MDA-MB-435 = tested on: MDA-MB-435
HOP-92 NSCLC = tested on: HOP-92 NSCLC
SK-MEL-5 melanoma = tested on: SK-MEL-5 melanoma
MDA-N = tested on: MDA-N
HS 578T breast = tested on: HS 578T breast
HL-60(TB) leukemia = tested on: HL-60(TB) leukemia
A498 renal = tested on: A498 renal
NCI-H522 lung = tested on: NCI-H522 lung
K-562 leukemia = tested on: K-562 leukemia
SK-MEL-28 melanoma = tested on: SK-MEL-28 melanoma
MALME-3M melanoma = tested on: MALME-3M melanoma
KM12 colon = tested on: KM12 colon
T-47D breast = tested on: T-47D breast
OVCAR-5 ovarian = tested on: OVCAR-5 ovarian
MDA-MB-231 breast = tested on: MDA-MB-231 breast
HT29 colon = tested on: HT29 colon
NCI-H23 lung = tested on: NCI-H23 lung
SK-OV-3 ovarian = tested on: SK-OV-3 ovarian
U251 CNS = tested on: U251 CNS
PC-3 prostate = tested on: PC-3 prostate
NCI-H460 lung = tested on: NCI-H460 lung
SNB-19 CNS = tested on: SNB-19 CNS
UACC-62 melanoma = tested on: UACC-62 melanoma
EKVX NSCLC = tested on: EKVX NSCLC
HCT-15 colon = tested on: HCT-15 colon
BT-549 breast = tested on: BT-549 breast
MCF7 breast = tested on: MCF7 breast
NCI-H226 lung = tested on: NCI-H226 lung
M14 melanoma = tested on: M14 melanoma
OVCAR-3 ovarian = tested on: OVCAR-3 ovarian

Measured: TGI

S=C=Nc1ccc(CSc2nc3ccccc3[nH]2)cc1
46 µM: A498 renal
31 µM: A549 NSCLC
32.6 µM: HT29 colon
34.1 µM: UACC-257 melanoma
32.7 µM: NCI-H23 lung
30.5 µM: ACHN renal
65.4 µM: SR leukemia
52.5 µM: RPMI-8226 leukemia
32.4 µM: OVCAR-5 ovarian
55.1 µM: MOLT-4 leukemia
31.4 µM: SW-620 colon
33.9 µM: MDA-MB-435
37.8 µM: SF-268 CNS
86.1 µM: SNB-19 CNS
40.4 µM: NCI-H460 lung | EKVX NSCLC
29.4 µM: SK-MEL-5 melanoma | UACC-62 melanoma
31.3 µM: SN12C renal
28.4 µM: HCT-15 colon
31.8 µM: T-47D breast
30.9 µM: U251 CNS
33.4 µM: SF-539 CNS
19.1 µM: NCI-H522 lung
> 100 µM: HS 578T breast | HL-60(TB) leukemia | K-562 leukemia
40.3 µM: SK-OV-3 ovarian
33.7 µM: IGROV1 ovarian
44.5 µM: HCT-116 colon
29 µM: COLO 205 colon
34.8 µM: SK-MEL-2 melanoma | UO-31 renal
32.1 µM: HOP-62 NSCLC | HCC-2998 colon
51.6 µM: MDA-MB-231 breast
80.4 µM: CCRF-CEM leukemia
31.6 µM: OVCAR-4 ovarian
32.3 µM: OVCAR-8 ovarian | SF-295 CNS
32 µM: SNB-75 CNS | HOP-92 NSCLC | MALME-3M melanoma | PC-3 prostate
29.6 µM: DU-145 prostate
31.7 µM: KM12 colon
33.5 µM: RXF 393 renal | CAKI-1 renal
40.7 µM: MDA-N
33 µM: NCI/ADR-RES ovarian
37.5 µM: 786-0 renal
38.9 µM: TK-10 renal
37.3 µM: SK-MEL-28 melanoma
35.6 µM: LOX IMVI melanoma

O=C1CCCC/C1=C1/SC(=Nc2ccccc2)C(=Nc2ccccc2)N1c1ccccc1
40 µM: RXF 393 renal
not listed: SF-268 CNS | A549 NSCLC | SW-620 colon | OVCAR-4 ovarian | TK-10 renal | SF-539 CNS | 786-0 renal | UACC-257 melanoma | LOX IMVI melanoma | ACHN renal | MDA-MB-435 | SK-MEL-5 melanoma | PC-3 prostate | EKVX NSCLC
> 100 µM: all other assays above

COc1ccc(/C=C2\C[C@H]3[C@@H]4CC=C5C[C@@H](OC(C)=O)CC[C@]5(C)[C@H]4CC[C@]3(C)\C2=N\O)cc1OC
27.2 µM: EKVX NSCLC
56.5 µM: NCI-H226 lung
88.2 µM: RPMI-8226 leukemia
9.83 µM: SK-MEL-5 melanoma
27.1 µM: COLO 205 colon
91.6 µM: UO-31 renal
not listed: TK-10 renal | MDA-MB-231 breast | U251 CNS
> 100 µM: all other assays above

O=C(O)Cc1ccc(Nc2nc3ccccc3nc2C(=O)O)cc1
not listed: HCC-2998 colon | RPMI-8226 leukemia | K-562 leukemia | MDA-MB-231 breast
> 100 µM: all other assays above
